The values that follow come from patent US12583884B2, “3beta-(benzyloxy)-17alpha-methyl-pregn-5-en-20-one for use in the treatment of cognitive disorders” (AELIS FARMA, priority 2018, dated 2026).

SMILES strings stand for the structures. Bounds are passed on as bounds.

The nature of data set [1]: Spontaneous behaviors in the home cage (video analysis). The following applies: 30 mg/kg per os; 24 hours video analysis. The data set is classed as in vivo, mouse.
Data set [2] has as its target human CB1 receptor (Homo sapiens, UniProt P21554). Briefly: THC-induced decrease of cAMP in CHO-hCB1 cells. The data set is classed as cell-based. The following applies: 1 nM, 10 nM, 100 nM and 1 μM. As to the method: CHO-CB1-C2 cells were treated by concomitantly adding THC and the test compound for 45 minutes. Forskolin (2.5 μM) was also simultaneously added in all the conditions tested to sustain cAMP basal level.
At the end of the treatment, cells were lysed to proceed with the cAMP quantification. All measures were performed in triplicates in one experiment. The quantitative determination of cAMP was performed through a competitive fluorescence immunoassay. Data were expressed as % of Delta Fluorescence (Delta F) that was calculated as follows: Delta F %=(Sample Fluorescence−Negative control Fluorescence)/Negative control Fluorescence.

Data set [3] has as its target T1, Steroid nuclear receptors AR (Homo sapiens, UniProt P10275).
T1 construct: CEREP
Description: Binding: AR. The source says:
The CEREP High-throughput profile consists of a broad collection of 80 transmembrane and soluble receptors, ion channels and G-Protein coupled receptors.

The nature of data set [4]: Anxiety-like behaviors in the elevated plus maze. The data set is classed as in vivo, mouse. The text has this:
The EPM apparatus was made of grey polyvinyl chloride and consisted of four elevated arms. The arms (height, 60 cm; length, 37 cm; width, 6 cm; each) were arranged in a cross-like disposition, with two opposite arms being enclosed by walls and the two other arms being open. A video camera placed on the top of the maze and connected to a tracking system allowed the automatic scoring of the locomotion of the mice in the maze. The light intensity of the maze was set at 45 lux in the open arms. One mouse was placed in the center of the EPM and was then free to explore the entire maze for 5 minutes. The time spent and the number of entries into the open arms and closed arms were measured. A decrease in the percentages of visits and/or of the time spent in open arms reflects an increase in anxiety levels.
Rimonabant was dissolved in a vehicle containing DMSO, (2%), Tween80 (2%) in injectable NaCl 0.9%. Within the same study, the effect of intraperitoneal injection of rimonabant at 10 mg/kg or of vehicle alone (10 ml/kg) was studied in the EPM in 2-month-old male C57B1/6J mice (n=10 per group). The EPM test was performed 30 minutes after rimonabant injection.

Data set [5] in a line: 7-day oral safety study in rats. The data set is classed as in vivo, Sprague-Dawley rats. The protocol:
Morbidity/mortality checks were performed twice daily. Clinical observations were performed before the first dosing and then daily. Functional and neurobehavioral tests were performed before the first dosing and on the last day of treatment. Body weight was recorded on Day-1, Day-3, Day-5 and Day-7. Food consumption was measured weekly.
Blood samples for haematology parameters and clinical chemistry analysis were collected on the day of necropsy (Day-8).
Animals were sacrificed on Day-8. Selected organs were weighed, fixed, preserved at necropsy and examined histopathologically.

Data set [6] deals with Ts65Dn mice. Briefly: Working memory (radial maze), Down syndrome model. The data set is classed as in vivo, mouse. To be noted: 0.06 μg/ml in drinking water. As to the method:
The working memory task was performed using 8-arm radial mazes described in Example 3a. Food restriction and habituation procedure were performed as described in Example 3a. The working memory procedure began 24 h after the last habituation session. Each mouse was submitted to 15 daily learning sessions (5 blocks of 3 days) made of 23 trials each. Six arms out of eight were used during the working memory test (3 pairs (A, B or C) of adjacent arms).
At the beginning of each daily session, the mouse was placed at the center of the maze with no access to the arms. The doors of the first pair of arms then opened giving access to both arms of the pair. Once the mouse had visited one of the arms and goes back to the central platform, the door closed, and the animal was confined in the central platform for 10 sec (inter-trial interval, ITI) before two doors opened again giving access to a pair of arms. Once the animal had visited one of the arms and returns to the central platform the doors close again for 10 sec before the next trial. Within each session, the mouse was submitted to repeated and successive presentations of the 3 pairs of arms one at a time. At the first presentation of each arm pair the food reward was present in both arms. […]

Chain of human CB1 receptor (P21554 whole entry): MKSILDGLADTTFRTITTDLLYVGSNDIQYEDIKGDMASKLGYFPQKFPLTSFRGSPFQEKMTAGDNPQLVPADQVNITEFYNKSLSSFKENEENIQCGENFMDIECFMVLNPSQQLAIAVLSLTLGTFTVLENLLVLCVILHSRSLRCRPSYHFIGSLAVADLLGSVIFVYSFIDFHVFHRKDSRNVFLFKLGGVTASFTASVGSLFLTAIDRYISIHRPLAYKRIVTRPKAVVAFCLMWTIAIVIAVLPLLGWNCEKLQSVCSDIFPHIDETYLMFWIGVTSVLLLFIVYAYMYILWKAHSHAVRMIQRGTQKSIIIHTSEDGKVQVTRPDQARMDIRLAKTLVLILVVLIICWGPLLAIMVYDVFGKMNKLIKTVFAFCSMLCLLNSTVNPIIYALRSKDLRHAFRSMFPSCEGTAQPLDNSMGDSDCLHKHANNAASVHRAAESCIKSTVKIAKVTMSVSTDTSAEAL
T1 sequence (P10275 whole entry): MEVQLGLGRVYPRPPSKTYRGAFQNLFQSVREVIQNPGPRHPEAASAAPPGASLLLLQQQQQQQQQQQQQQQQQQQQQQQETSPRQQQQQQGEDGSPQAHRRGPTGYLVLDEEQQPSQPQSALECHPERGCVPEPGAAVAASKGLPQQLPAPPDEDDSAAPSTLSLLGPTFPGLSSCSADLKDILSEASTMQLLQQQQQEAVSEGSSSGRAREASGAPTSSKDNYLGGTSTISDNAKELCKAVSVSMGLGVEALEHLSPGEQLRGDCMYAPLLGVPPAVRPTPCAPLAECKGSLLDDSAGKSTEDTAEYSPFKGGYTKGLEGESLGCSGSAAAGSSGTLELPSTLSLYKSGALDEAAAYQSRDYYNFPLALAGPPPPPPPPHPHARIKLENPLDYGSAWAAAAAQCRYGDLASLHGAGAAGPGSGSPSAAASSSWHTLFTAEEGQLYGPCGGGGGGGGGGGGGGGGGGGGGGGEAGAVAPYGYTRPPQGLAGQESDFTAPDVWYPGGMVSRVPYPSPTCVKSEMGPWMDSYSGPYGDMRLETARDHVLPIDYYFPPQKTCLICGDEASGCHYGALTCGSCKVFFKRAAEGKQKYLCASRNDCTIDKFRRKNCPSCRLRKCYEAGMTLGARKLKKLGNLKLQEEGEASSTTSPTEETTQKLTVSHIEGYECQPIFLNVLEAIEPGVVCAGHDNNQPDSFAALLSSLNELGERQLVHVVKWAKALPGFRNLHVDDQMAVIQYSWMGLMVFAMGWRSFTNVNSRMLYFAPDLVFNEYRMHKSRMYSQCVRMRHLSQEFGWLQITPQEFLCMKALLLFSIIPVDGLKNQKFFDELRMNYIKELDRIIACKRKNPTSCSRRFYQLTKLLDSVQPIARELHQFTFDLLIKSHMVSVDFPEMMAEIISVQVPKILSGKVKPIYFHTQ

For the molecule `CC(=O)[C@@]1(C)CC[C@H]2[C@@H]3CC=C4C[C@@H](OCc5ccccc5)CC[C@]4(C)[C@H]3CC[C@@]21C` [3Bn17MeP, 3β-benzyloxy, 17α-methyl-pregn-5-en-20-one], the “Effects on spontaneous behaviors per se” value in data set [1] is reported as “no detectable effects”. Also, the “Effect on inhibition of cAMP induced by THC” value in data set [2] is recorded as “does not modify”. The molecule further had an inhibition at 10 µM in data set [3] of 16%. In addition, the “Percentage of time spent and of visits in the open arms” value in data set [4] (acute 30 mg/kg per os, 3 hours after administration) is “had no effect”. In data set [4] (male mice, highest dose tested 30 mg/kg), the “Effect: increase in anxiety-like behaviors (acute administration)” value is listed as “No”. In data set [5] (20 mg/kg per os, 7 days), the Histopathological changes entry is recorded as “not associated with any histopathological changes”, the Total protein level result was “tendency to lower total protein level” and the Triglyceride level result is reported as “higher triglyceride level”. Moreover, in data set [5] (20 mg/kg per os, 7 days, females), the Triglyceride level entry was “tendency to a lower triglyceride level”. Besides, the “Red blood cell counts” value in data set [5] (20 mg/kg per os, 7 days, males) is reported as “slight tendency to a lower red blood cell counts”. In data set [5] (20 mg/kg per os, 7 days, males and females), the “White blood cell counts” value is “tendency to a lower white blood cell counts”. In addition, in data set [5] (20 mg/kg/day per os, 7 consecutive days), the Signs of toxicity result was “did not induce any sign of toxicity”. The MTD at 7 days in data set [5] (both sexes, Sprague-Dawley, rat, in vivo, oral, 20 mg/kg, repeated treatment at a single dose, 7 days per os, read-out: Maximum tolerated dose (MTD)) is greater than 20 mg/kg/day. The “Correct responses (working memory)” value in data set [6] is listed as “increased correct responses in Ts65Dn as compared to vehicle mice that reached the level of WT”.
